Each compound was assayed against T1, RORc (Homo sapiens, UniProt P51449) (assay: In vitro RORc ligand binding assay (25-[3H]hydroxycholesterol displacement)). Conditions: IC50, IC50 values for RORc; unit inferred.
T1 sequence (P51449 269-508 limits assumed): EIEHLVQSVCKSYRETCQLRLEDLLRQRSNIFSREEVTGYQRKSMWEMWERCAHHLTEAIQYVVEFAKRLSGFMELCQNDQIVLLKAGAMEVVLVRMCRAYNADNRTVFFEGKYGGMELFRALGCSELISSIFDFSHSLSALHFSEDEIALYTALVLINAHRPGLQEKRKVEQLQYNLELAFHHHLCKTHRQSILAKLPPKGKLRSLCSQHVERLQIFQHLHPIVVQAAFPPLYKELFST
Procedure: This assay was used to determine a compound's potency in inhibiting activity of RORc by determining, Kiapp, IC50, or percent inhibition values.
On day of the assay, 100 uL of 0.05% CHAPS (in deionized H2O) was added to all wells of the GFB Unifilter plate and allowed soak for 1 h. A wash buffer of 50 mM HEPES (pH 7.4), 150 mM NaCl, and 5 mM MgCl2 was prepared to wash the filter plate. To prepare an assay buffer, BSA was added to the wash buffer to reach 0.01% and DTT was added to reach 1 mM.
The 20× compound stocks were diluted in DMSO with Assay Buffer 4-fold to reach 5× the final test concentration in 25% DMSO (10 uL compound+30 uL Assay Buffer). Solutions were mixed by aspiration several times with a pipette set on 50 uL volume. For the assay, 10 uL of 5× compound stock solutions in 25% DMSO were added to the assay plate in duplicate.
For two point screening, 10 mM stock compound solutions were diluted in DMSO to obtain 200 uM (20× the high test concentration) and then diluted 10-fold further to reach 20 uM (20× the low test concentration). The 20× stocks were diluted 4-fold with Assay Buffer (10 uL compound+30 uL Assay Buffer) to reach 5× the test concentrations (50 uM and 5 uM) and 10 uL were added to two assay plates for the duplicate wells. With each concentration tested on 2 plates, each set of 80 compounds used 4 assay plates (1 uM and 10 uM, with n=2).
For 25-hydroxycholesterol in 25% DMSO/75% Assay Buffer; 10 uL per well was used for NSB samples. Wells for Total Binding and No Receptor sample determination contained 10 uL of 25% DMSO/75% Assay Buffer per well.
Add 20 uL to all wells to reach 6 nM final in the assay.
Stock receptor solution was diluted in assay buffer to obtain 1.5 ug/mL in Assay Buffer. 20 uL was added to all wells. For No R samples, 20 uL Assay Buffer was substituted for receptor solution.
Assay plates were 96-well polypropylene V-bottom plates. 10 uL of 5× compound in 25% DMSO/75% Assay Buffer was added to Test wells. 10 uL of 25% DMSO/75% Assay Buffer was added to Total Binding or No Receptor wells. 10 uL of 5 uM 25-hydroxycholesterol in 25% DMSO/75% Assay Buffer was added to NSB wells. […] 20 uL of 1.5 ug/mL RORc receptor was added to wells (or 40 uL Assay Buffer to No R wells). Following addition to the wells, the plates were incubated 3 h at 25° C.
Using a Packard Filtermate Harvester, the filter plate were washed 4 times following transfer of the incubated samples. Plates were dry-filtered completely (2 h at 50° C. or overnight at room temperature). 50 uL Microscint 0 was added to all wells and read on Topcount protocol Inverted.
For NSB wells, 1 uM 25-hydroxycholesterol was also present.
C[C@H]1CC[C@H](c2ccccc2)S(=O)(=O)N1Cc1ccc(OCC2(CO)CCOCC2)cc1F [Example 3, {4-{3-Fluoro-4-((3S,6R)-3-methyl-1,1-dioxo-6-phenyl-[1,2]thiazinan-2-ylmethyl)-phenoxymethyl]-tetrahydro-pyran-4-yl}-methanol] showed an IC50 of 82 nM. C[C@H]1CC[C@H](c2ccccc2)S(=O)(=O)N1Cc1ccc(C2(/C(N)=N\O)CCOCC2)cc1F [Compound 93, 4-[3-fluoro-4-[[(3S,6R)-3-methyl-1,1-dioxo-6-phenyl-thiazinan-2-yl]methyl]phenyl]-N′-hydroxy-tetrahydropyran-4-carboxamidine] gave an IC50 of 37.8 nM. With C[C@H]1CC[C@H](c2ccccc2)S(=O)(=O)N1Cc1cc(F)c([C@]2(O)CC[C@@H](n3cnnc3)CC2)cc1F [Compound 37, 1-[2,5-Difluoro-4-((3S,6R)-3-methyl-1,1-dioxo-6-phenyl-[1,2]thiazinan-2-ylmethyl)-phenyl]-4-[1,2,4]triazol-4-yl-cyclohexanol] the IC50 was 20 nM. For C[C@H]1CC[C@H](c2ccccc2)S(=O)(=O)N1Cc1ccc(C2(CO)CCOCC2)cc1F [Compound 68, [4-[3-fluoro-4-[[(3S,6R)-3-methyl-1,1-dioxo-6-phenyl-thiazinan-2-yl]methyl]phenyl]tetrahydropyran-4-yl]methanol], the IC50 was 38.5 nM. C[C@H]1CC[C@H](c2ccccc2)S(=O)(=O)N1Cc1ccc([C@]2(C(N)=O)C[C@H](O)C2)cc1F [Compound 182, 1-[3-fluoro-4-[[(3S,6R)-3-methyl-1,1-dioxo-6-phenyl-thiazinan-2-yl]methyl]phenyl]-3-hydroxy-cyclobutanecarboxamide] gave an IC50 of 37.3 nM. Work on C[C@H]1CC[C@H](c2ccccc2)S(=O)(=O)N1Cc1ccc(C2(CCO)COC2)cc1F [Compound 158] yielded an IC50 of 60.3 nM. C[C@H]1CC[C@H](c2ccccc2)S(=O)(=O)N1Cc1ccc(C2(C(N)=O)CCOCC2)cc1F [Compound 67, 4-[3-fluoro-4-[[(3S,6R)-3-methyl-1,1-dioxo-6-phenyl-thiazinan-2-yl]methyl]phenyl]tetrahydropyran-4-carboxamide] gave an IC50 of 18 nM. With C[C@H]1CC[C@H](c2ccccc2)S(=O)(=O)N1Cc1ccc(C2(C(=O)NCC(=O)O)CCOCC2)cc1F [Compound 58, 2-[[4-[3-fluoro-4-[[(3S,6R)-3-methyl-1,1-dioxo-6-phenyl-thiazinan-2-yl]methyl]phenyl]tetrahydropyran-4-carbonyl]amino]acetic acid] the IC50 was 228 nM. Compound C[C@H]1CC[C@H](c2ccccc2)S(=O)(=O)N1Cc1ccc([C@]2(CO)CC[C@H](n3cnnc3)CC2)cc1 [Example 14, {1-[4-((3S,6R)-3-Methyl-1,1-dioxo-6-phenyl-[1,2]thiazinan-2-ylmethyl)-phenyl]-4-[1,2,4]triazol-4-yl-cyclohexyl}-methanol] has an IC50 of 1800 nM. Work on C[C@H]1CC[C@H](c2ccccc2)S(=O)(=O)N1Cc1ccc(C2(NC(=O)OC(C)(C)C)CC2)cc1F [Compound 152, tert-butyl N-[1-[3-fluoro-4-[[(3S,6R)-3-methyl-1,1-dioxo-6-phenyl-thiazinan-2-yl]methyl]phenyl]cyclopropyl]carbamate] yielded an IC50 of 227 nM. With C[C@H]1CC[C@H](c2ccccc2)S(=O)(=O)N1Cc1cc(F)c(C2(N[S+]([O-])C(C)(C)C)COC2)cc1F (stereo partly drawn) [Compound 191, N-[3-[2,5-difluoro-4-[[(3S,6R)-3-methyl-1,1-dioxo-6-phenyl-thiazinan-2-yl]methyl]phenyl]oxetan-3-yl]-2-methyl-propane-2-sulfinamide] the IC50 was 55.3 nM. With C[C@H]1CC[C@H](c2ccccc2)S(=O)(=O)N1Cc1ccc(OCC2(F)CCOCC2)cc1F [Example 5, (3S,6R)-2-[2-Fluoro-4-(4-fluoro-tetrahydro-pyran-4-ylmethoxy)-benzyl]-3-methyl-6-phenyl-[1,2]thiazinane 1,1-dioxide] the IC50 was 160 nM. With C[C@H]1CC[C@H](c2ccccc2)S(=O)(=O)N1Cc1cc(F)c(C2(C(N)=O)CCOCC2)cc1F [Compound 102, 4-[2,5-difluoro-4-[[(3S,6R)-3-methyl-1,1-dioxo-6-phenyl-thiazinan-2-yl]methyl]phenyl]tetrahydropyran-4-carboxamide] the IC50 was 37.8 nM. With CC(=O)N1CCC(OCC(O)CO)(c2cc(F)c(CN3[C@@H](C)CC[C@H](c4ccccc4)S3(=O)=O)cc2F)CC1 (stereo in doubt) [Compound 168, 1-[4-[2,5-difluoro-4-[[(3S,6R)-3-methyl-1,1-dioxo-6-phenyl-thiazinan-2-yl]methyl]phenyl]-4-[(2S)-2,3-dihydroxypropoxy]-1-piperidyl]ethanone] the IC50 was 35.5 nM. Compound C[C@H]1CC[C@H](c2ccccc2)S(=O)(=O)N1Cc1ccc(C2(C(=O)NCCN(C)C)CCOCC2)cc1F [Compound 53, N-[2-(dimethylamino)ethyl]-4-[3-fluoro-4-[[(3S,6R)-3-methyl-1,1-dioxo-6-phenyl-thiazinan-2-yl]methyl]phenyl]tetrahydropyran-4-carboxamide] has an IC50 of 845 nM. CNC(=O)C1(c2ccc(CN3[C@@H](C)CCC(c4ccccc4)S3(=O)=O)cc2)CCOCC1 (stereo partly drawn) [Compound 40, 4-[4-((S)-3-Methyl-1,1-dioxo-6-phenyl-[1,2]thiazinan-2-ylmethyl)-phenyl]-tetrahydro-pyran-4-carboxylic acid methylamide] gave an IC50 of 570 nM. For C[C@H]1CC[C@H](c2ccccc2)S(=O)(=O)N1Cc1ccc(C2(CNS(C)(=O)=O)CCOCC2)cc1F [Compound 71, N-[[4-[3-fluoro-4-[[(3S,6R)-3-methyl-1,1-dioxo-6-phenyl-thiazinan-2-yl]methyl]phenyl]tetrahydropyran-4-yl]methyl]methanesulfonamide], the IC50 was 76.7 nM. Compound C[C@H](O)CNC(=O)C1(c2ccc(CN3[C@@H](C)CC[C@H](c4ccccc4)S3(=O)=O)c(F)c2)CCOCC1 [Compound 63, 4-[3-fluoro-4-[[(3S,6R)-3-methyl-1,1-dioxo-6-phenyl-thiazinan-2-yl]methyl]phenyl]-N-[(2S)-2-hydroxypropyl]tetrahydropyran-4-carboxamide] has an IC50 of 36 nM. In the case of C[C@H]1CC[C@H](c2ccccc2)S(=O)(=O)N1Cc1cc(F)c(C2(OCC(=O)O)CCOCC2)cc1F [Compound 145, 2-[4-[2,5-difluoro-4-[[(3S,6R)-3-methyl-1,1-dioxo-6-phenyl-thiazinan-2-yl]methyl]phenyl]tetrahydropyran-4-yl]oxyacetic acid], the IC50 is reported as 14.3 nM. With COC(=O)C1(c2ccc(CN3[C@@H](C)CC[C@H](c4ccccc4)S3(=O)=O)c(F)c2)CCN(C(C)=O)CC1 [Compound 124, methyl 1-acetyl-4-[3-fluoro-4-[[(3S,6R)-3-methyl-1,1-dioxo-6-phenyl-thiazinan-2-yl]methyl]phenyl]piperidine-4-carboxylate] the IC50 was 13 nM. C[C@H]1CC[C@@H](c2ccccc2)S(=O)(=O)N1Cc1cc(F)c(C2(CO)CCC(O)CC2)cc1F (stereo partly drawn) [Compound 132] gave an IC50 of 240 nM. For CNC(=O)COC1(c2cc(F)c(CN3[C@@H](C)CC[C@H](c4ccccc4)S3(=O)=O)cc2F)COC1 [Compound 177, 2-[3-[2,5-difluoro-4-[[(3S,6R)-3-methyl-1,1-dioxo-6-phenyl-thiazinan-2-yl]methyl]phenyl]oxetan-3-yl]oxy-N-methyl-acetamide], the IC50 was 4.35 nM. Compound C[C@H]1CC[C@H](c2ccccc2)S(=O)(=O)N1Cc1cc(F)c(C2(C(N)=O)CC(=O)C2)cc1F [Compound 193, 1-[2,5-difluoro-4-[[(3S,6R)-3-methyl-1,1-dioxo-6-phenyl-thiazinan-2-yl]methyl]phenyl]-3-oxo-cyclobutanecarboxamide] has an IC50 of 8.07 nM. Compound CCOC(=O)[C@@H](C)NC1(c2ccc(CN3[C@@H](C)CC[C@H](c4ccccc4)S3(=O)=O)c(F)c2)CCOCC1 [Compound 172, ethyl (2R)-2-[[4-[3-fluoro-4-[[(3S,6R)-3-methyl-1,1-dioxo-6-phenyl-thiazinan-2-yl]methyl]phenyl]tetrahydropyran-4-yl]amino]propanoate] has an IC50 of 120 nM. Compound C[C@H]1CC[C@@H](c2ccccc2)S(=O)(=O)N1Cc1ccc(C2(O)CCS(=O)(=O)CC2)cc1F [Compound 41, (3S,6S)-2-(2-fluoro-4-(4-hydroxy-1,1-dioxidotetrahydro-2H-thiopyran-4-yl)benzyl)-3-methyl-6-phenyl-1,2-thiazinane 1,1-dioxide] has an IC50 of 1200 nM. For COC(CNC1(c2cc(F)c(CN3[C@@H](C)CC[C@H](c4ccccc4)S3(=O)=O)cc2F)CCOCC1)OC [Compound 189, 4-[2,5-difluoro-4-[[(3S,6R)-3-methyl-1,1-dioxo-6-phenyl-thiazinan-2-yl]methyl]phenyl]-N-(2,2-dimethoxyethyl)tetrahydropyran-4-amine], the IC50 was 71 nM. In the case of CC(=O)N1CCC(O)(c2ccc(CN3[C@@H](C)CC[C@H](c4ccccc4)S3(=O)=O)cc2)CC1 [Example 7, 1-{4-Hydroxy-4-[4-((3S,6R)-3-methyl-1,1-dioxo-6-phenyl-[1,2]thiazinan-2-ylmethyl)-phenyl]-piperidin-1-yl}-ethanone], the IC50 is reported as 330 nM. CCOC(=O)[C@H](C)NC1(c2ccc(CN3[C@@H](C)CC[C@H](c4ccccc4)S3(=O)=O)c(F)c2)CCOCC1 [Compound 184, ethyl (2S)-2-[[4-[3-fluoro-4-[[(3S,6R)-3-methyl-1,1-dioxo-6-phenyl-thiazinan-2-yl]methyl]phenyl]tetrahydropyran-4-yl]amino]propanoate] gave an IC50 of 40.9 nM. Work on CCNC(=O)C1(c2ccc(CN3[C@@H](C)CC[C@H](c4ccccc4)S3(=O)=O)c(F)c2)CCOCC1 [Compound 51, N-ethyl-4-[3-fluoro-4-[[(3S,6R)-3-methyl-1,1-dioxo-6-phenyl-thiazinan-2-yl]methyl]phenyl]tetrahydropyran-4-carboxamide] yielded an IC50 of 147 nM. COCC1(c2ccc(CN3[C@@H](C)CC[C@H](c4ccccc4)S3(=O)=O)c(F)c2)CCOCC1 [Compound 90, (3S,6R)-2-[[2-fluoro-4-[4-(methoxymethyl)tetrahydropyran-4-yl]phenyl]methyl]-3-methyl-6-phenyl-thiazinane 1,1-dioxide] showed an IC50 of 67 nM.

— patent US10131644B2, “Aryl sultam derivatives as RORc modulators” (Genentech, Inc., priority 2014, dated 2018)
